Source: publication PMC7450530 (Biochemistry, 2019)
pEC50, pIC50: −log10 of the molar value.

Tests used:
[1] = target: T1, B. anthracis wild-type gyrase (Bacillus anthracis, UniProt A0A6H3A7B1); assay type: biochemical; settings: read-out: IC50, inhibition of DNA supercoiling
E. coli wild-type gyrase [2] = target: T2, E. coli wild-type gyrase (Escherichia coli, UniProt P0AES4); assay type: biochemical; settings: read-out: IC50, inhibition of DNA supercoiling
[3] = target: T3, M. tuberculosis wild-type gyrase (Mycobacterium tuberculosis, UniProt P9WG47); assay type: biochemical
E. coli GyrA^S83L gyrase [4] = target: T4, E. coli GyrA^S83L gyrase (Escherichia coli, UniProt P0AES4, S83L); assay type: biochemical
[5] = target: T5, B. anthracis wild-type topoisomerase IV (Bacillus anthracis, UniProt A0A6H3AG07); assay type: biochemical; settings: read-out: IC50, inhibition of DNA decatenation
[6] = target: T6, E. coli wild-type topoisomerase IV (Escherichia coli, UniProt P0AFI2); assay type: biochemical; settings: read-out: IC50, inhibition of DNA decatenation
[7] = target: T7, E. coli ParC^S80L topoisomerase IV (Escherichia coli, UniProt P0AFI2, S80L); assay type: biochemical; settings: read-out: IC50, inhibition of DNA decatenation
[8] = target: T1, B. anthracis wild-type gyrase; assay type: biochemical
E. coli wild-type gyrase [9] = target: T2, E. coli wild-type gyrase; assay type: biochemical
[10] = target: T3, M. tuberculosis wild-type gyrase; assay type: biochemical; remark: listed apart in the source
E. coli GyrA^S83L gyrase [11] = target: T4, E. coli GyrA^S83L gyrase; assay type: biochemical; remark: listed apart in the source
[12] = target: T5, B. anthracis wild-type topoisomerase IV; assay type: biochemical
[13] = target: T6, E. coli wild-type topoisomerase IV; assay type: biochemical
[14] = target: T7, E. coli ParC^S80L topoisomerase IV; assay type: biochemical
E. coli = settings: cited from earlier work
[15] = system: Mycobacterium tuberculosis; settings: cited from earlier work
gyrase = settings: cited from earlier work
[16] = read-out: EC50, enhancement of single-stranded DNA cleavage

SMILES: CC[C@H](C)n1cc(C)c2c(C(=O)NCc3c(C)cc(C)[nH]c3=O)cc(-c3ccc(N4CCNCC4)nc3)cc21 [GSK126]
- pIC50 [1]: ~6.40
- pIC50 (E. coli wild-type gyrase [2]): ~5.70
- maximal decrease of supercoiling activity [3]: 60%
- pIC50 ([3]; read-out: IC50, inhibition of DNA supercoiling): ~4.12
- fold more potent in supercoiling inhibition than against wild-type enzyme (E. coli GyrA^S83L gyrase [4]): 5–10 fold
- pIC50 [5]: ~5.64
- pIC50 [6]: ~5.85
- pIC50 [7]: ~5.85
- induction of double-stranded DNA breaks [8]: no ability to induce double-stranded breaks
- induction of double-stranded DNA breaks (E. coli wild-type gyrase [9]): no ability to induce double-stranded breaks
- levels of single-stranded DNA cleavage in the presence of ATP vs absence (E. coli wild-type gyrase [9]): considerably lower
- induction of double-stranded DNA breaks [10]: no ability to induce double-stranded breaks
- enhancement of DNA cleavage (E. coli GyrA^S83L gyrase [11]): no ability to enhance DNA cleavage
- enhancement of double-stranded DNA breaks [12]: no enhancement of double-stranded breaks was observed
- pEC50 [12, 16]: > 6.30
- ability to induce DNA cleavage in the presence of ATP [13]: marginal
- enhancement of double-stranded DNA breaks [13]: no enhancement of double-stranded breaks was observed
- pEC50 [13, 16]: > 6.30
- induction of DNA cleavage [14]: ineffective at inducing DNA cleavage
- Minimal Inhibitory Concentration (E. coli): 0.26 µM
- activity against the bacterium in a screen [15]: moderate activity

SMILES: O=c1ccc2ncc(=O)n3c2n1C[C@H]3CN1CCC(NCc2cc3c(cn2)OCCC3)CC1 [gepotidacin]
- type of gyrase-mediated DNA breaks induced (gyrase): induces only gyrase-mediated single-stranded DNA breaks

SMILES: COc1ccc2ncc(C#N)c(CCN3CCC(NCc4cc5c(cn4)OCS5)CC3)c2c1 [GSK299423]
- type of gyrase-mediated DNA breaks induced (gyrase): induces only gyrase-mediated single-stranded DNA breaks
